Data on 1 compound can be found in BindingDB's records for patent US12338253 (Applied Pharmaceutical Science, 2025).

This test deals with Proto-oncogene tyrosine-protein kinase receptor Ret [V804M] (Human, UniProt P07949, V804M). The experiment in a line: Kinase Activity Assay.
Chain of Proto-oncogene tyrosine-protein kinase receptor Ret [V804M] (P07949 29-1114 V804M limits assumed): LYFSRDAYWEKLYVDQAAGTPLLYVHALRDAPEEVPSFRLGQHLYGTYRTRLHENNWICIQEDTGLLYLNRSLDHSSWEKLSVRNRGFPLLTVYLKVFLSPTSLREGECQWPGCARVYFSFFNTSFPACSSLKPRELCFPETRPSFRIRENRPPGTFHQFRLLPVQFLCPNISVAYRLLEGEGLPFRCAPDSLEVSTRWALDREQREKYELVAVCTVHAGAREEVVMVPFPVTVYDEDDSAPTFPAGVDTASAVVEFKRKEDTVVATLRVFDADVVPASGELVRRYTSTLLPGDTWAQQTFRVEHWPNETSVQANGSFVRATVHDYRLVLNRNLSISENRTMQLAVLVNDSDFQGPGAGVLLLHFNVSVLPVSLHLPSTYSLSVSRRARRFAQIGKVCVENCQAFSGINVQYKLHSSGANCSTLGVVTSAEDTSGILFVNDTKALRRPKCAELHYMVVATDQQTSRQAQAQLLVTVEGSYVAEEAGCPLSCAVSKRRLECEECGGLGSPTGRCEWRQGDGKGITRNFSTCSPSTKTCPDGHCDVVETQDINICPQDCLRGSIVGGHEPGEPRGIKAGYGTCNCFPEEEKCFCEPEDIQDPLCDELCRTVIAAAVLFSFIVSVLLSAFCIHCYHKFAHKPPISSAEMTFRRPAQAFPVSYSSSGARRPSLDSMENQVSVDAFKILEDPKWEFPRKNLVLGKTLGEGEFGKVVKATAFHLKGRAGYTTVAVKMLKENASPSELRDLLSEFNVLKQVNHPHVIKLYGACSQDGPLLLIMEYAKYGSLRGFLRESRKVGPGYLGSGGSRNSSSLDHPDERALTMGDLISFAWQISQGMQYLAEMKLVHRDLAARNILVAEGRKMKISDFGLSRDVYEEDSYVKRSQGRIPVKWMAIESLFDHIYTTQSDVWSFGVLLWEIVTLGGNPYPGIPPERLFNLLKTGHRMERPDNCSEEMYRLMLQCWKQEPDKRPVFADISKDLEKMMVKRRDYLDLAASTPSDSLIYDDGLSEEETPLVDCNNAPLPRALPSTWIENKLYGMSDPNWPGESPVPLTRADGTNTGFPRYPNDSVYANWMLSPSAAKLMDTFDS

A word on the IC50: it is the point on the concentration scale where inhibition reaches its midpoint. Read a high IC50 as lower potency. In turn, `COc1ccc(CN2C3CC2CN(c2ccc(-c4cc(OC[C@@H]5CNCCO5)cn5nc6[nH]ncc6c45)cn2)C3)cn1` [US12338253, Compound 17] displayed an IC50 of 0.1 nM.
